Experimental data taken from PMC2801581 (Journal of medicinal chemistry, 2009).
Like-named read-outs stand apart in the source and are kept apart here.

Legend:
[1] = molecular target: T1, HePTP (Homo sapiens, UniProt P35236); experiment: HePTP counterscreen; format: biochemical; conditions: read-out: IC50 HePTP (DiFMUP)
T1 sequence (P35236 65-360): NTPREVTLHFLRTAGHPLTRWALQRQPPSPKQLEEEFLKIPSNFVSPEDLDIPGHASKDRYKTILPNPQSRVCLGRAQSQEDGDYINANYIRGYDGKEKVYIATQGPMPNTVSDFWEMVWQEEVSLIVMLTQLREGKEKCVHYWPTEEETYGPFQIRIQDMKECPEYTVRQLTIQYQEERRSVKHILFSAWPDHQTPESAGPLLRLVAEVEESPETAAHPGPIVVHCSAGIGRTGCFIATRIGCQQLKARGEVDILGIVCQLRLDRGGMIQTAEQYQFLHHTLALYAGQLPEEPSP

[2] = molecular target: T2, CD45 (Homo sapiens, UniProt P08575); experiment: CD45 counterscreen; format: biochemical; conditions: read-out: IC50 CD45 (DiFMUP)
T2 sequence (P08575 653-912 limits assumed): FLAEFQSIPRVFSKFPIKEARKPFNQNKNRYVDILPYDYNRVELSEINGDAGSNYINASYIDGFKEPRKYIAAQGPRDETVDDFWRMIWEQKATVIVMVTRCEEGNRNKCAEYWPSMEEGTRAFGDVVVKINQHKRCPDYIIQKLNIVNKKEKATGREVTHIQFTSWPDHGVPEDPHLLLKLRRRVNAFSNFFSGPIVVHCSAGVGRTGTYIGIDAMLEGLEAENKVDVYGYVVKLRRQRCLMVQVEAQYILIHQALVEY

[3] = molecular target: T3, PTP-PEST (Homo sapiens, UniProt Q05209); experiment: PTP-PEST inhibition assay with fluorogenic substrates; format: biochemical; conditions: pH 6.5
T3 sequence (Q05209 2-323): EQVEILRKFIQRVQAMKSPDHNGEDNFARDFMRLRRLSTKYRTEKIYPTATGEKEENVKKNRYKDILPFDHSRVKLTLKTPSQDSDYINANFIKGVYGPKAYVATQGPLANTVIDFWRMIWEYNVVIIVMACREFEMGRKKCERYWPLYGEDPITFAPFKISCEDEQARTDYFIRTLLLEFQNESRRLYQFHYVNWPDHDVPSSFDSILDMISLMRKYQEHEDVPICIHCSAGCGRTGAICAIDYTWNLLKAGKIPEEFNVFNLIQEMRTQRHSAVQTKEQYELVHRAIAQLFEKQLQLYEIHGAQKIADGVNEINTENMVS

[4] = molecular target: T4, LYP (Homo sapiens, UniProt Q9Y2R2); experiment: LYP inhibition assay with fluorogenic substrates; format: biochemical; conditions: for LYP versus PTP-PEST inhibition in comparative library screen: nominal 5 µM, DiFMUP and peptide 1; for IC50: pH 6.5; for selectivity for LYP over PTP-PEST in dose-response screens: in vitro, Table 1
T4 sequence (Q9Y2R2 2-309): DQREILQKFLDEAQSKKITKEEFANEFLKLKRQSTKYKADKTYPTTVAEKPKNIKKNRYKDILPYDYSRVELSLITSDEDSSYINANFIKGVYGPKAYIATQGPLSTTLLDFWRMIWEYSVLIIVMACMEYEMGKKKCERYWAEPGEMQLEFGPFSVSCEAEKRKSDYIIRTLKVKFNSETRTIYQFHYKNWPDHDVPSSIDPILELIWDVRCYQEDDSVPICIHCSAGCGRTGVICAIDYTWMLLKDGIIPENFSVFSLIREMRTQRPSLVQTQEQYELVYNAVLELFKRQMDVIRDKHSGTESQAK

[5] = molecular target: T5, PTP1B (Homo sapiens, UniProt P18031); experiment: PTP1B inhibition assay with fluorogenic substrates; format: biochemical; conditions: for IC50: pH 7.1; for PTP1B inhibition in library screen, peptide 2 versus DiFMUP: nominal 5 µM
T5 sequence (P18031 3-277 limits assumed): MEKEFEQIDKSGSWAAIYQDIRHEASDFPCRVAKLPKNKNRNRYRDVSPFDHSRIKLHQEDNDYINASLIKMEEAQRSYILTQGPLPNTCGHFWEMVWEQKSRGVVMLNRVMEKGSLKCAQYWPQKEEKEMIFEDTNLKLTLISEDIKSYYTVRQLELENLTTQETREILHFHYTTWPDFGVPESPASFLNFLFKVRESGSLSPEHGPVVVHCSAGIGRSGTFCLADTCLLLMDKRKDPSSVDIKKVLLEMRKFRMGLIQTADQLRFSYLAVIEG

[6] = molecular target: T6, TCPTP (Homo sapiens, UniProt P17706); experiment: TCPTP inhibition assay with fluorogenic substrates; format: biochemical; conditions: for IC50: pH 7.1
T6 sequence (P17706 5-275 limits assumed): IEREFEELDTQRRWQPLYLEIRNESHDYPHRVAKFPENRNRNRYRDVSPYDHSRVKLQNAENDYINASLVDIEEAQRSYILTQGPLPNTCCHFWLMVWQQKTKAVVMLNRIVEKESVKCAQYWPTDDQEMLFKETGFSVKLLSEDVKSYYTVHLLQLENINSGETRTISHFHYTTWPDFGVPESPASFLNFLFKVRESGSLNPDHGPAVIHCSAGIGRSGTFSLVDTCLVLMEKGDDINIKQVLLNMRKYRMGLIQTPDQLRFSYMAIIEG

[7] = molecular target: T7, CD45 (Homo sapiens, UniProt P08575); experiment: Intracellular CD45 inhibition in JTAg cells, anti-pLck; format: cell-based; conditions: JTAg cells; 50 µM of 17 and 34, 25 µM of 39, 1 h
T7 sequence (P08575 26-1306): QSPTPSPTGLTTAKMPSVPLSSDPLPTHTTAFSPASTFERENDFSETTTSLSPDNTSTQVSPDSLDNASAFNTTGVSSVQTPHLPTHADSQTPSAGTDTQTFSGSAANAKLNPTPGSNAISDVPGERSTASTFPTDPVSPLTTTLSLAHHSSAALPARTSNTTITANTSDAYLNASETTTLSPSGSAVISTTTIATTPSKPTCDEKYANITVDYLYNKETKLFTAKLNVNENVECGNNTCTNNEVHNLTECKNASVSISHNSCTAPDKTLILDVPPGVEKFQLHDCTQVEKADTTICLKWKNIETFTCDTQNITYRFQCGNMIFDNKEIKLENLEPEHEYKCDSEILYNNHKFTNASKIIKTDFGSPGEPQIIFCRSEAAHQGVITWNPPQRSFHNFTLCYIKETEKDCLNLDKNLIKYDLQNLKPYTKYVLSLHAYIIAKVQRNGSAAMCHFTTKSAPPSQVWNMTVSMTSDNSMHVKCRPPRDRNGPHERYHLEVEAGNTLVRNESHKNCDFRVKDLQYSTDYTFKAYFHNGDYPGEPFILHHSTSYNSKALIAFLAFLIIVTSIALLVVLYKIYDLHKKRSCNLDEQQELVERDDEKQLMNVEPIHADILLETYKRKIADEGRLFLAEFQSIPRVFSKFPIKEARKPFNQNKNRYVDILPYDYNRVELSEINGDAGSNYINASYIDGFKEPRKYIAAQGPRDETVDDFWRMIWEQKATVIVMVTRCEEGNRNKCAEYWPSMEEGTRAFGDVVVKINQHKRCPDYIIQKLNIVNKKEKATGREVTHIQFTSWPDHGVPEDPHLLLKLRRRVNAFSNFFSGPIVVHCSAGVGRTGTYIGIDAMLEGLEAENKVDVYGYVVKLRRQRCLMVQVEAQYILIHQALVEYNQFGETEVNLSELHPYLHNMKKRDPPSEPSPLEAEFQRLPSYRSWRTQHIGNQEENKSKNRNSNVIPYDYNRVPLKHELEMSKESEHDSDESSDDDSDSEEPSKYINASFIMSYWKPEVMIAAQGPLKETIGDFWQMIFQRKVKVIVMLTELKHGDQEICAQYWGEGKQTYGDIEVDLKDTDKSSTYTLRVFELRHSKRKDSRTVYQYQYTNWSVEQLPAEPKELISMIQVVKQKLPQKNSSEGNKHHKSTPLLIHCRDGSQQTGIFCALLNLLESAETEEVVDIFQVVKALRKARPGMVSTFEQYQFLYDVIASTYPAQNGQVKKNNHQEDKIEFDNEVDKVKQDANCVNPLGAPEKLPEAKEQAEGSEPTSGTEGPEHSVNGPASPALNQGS

[8] = system: LYP; experiment: Intracellular LYP inhibition in JTAg cells, anti-pLck; format: cell-based, human; conditions: JTAg cells, TCR stimulated (C305, 2 min); 50 µM of 17 and 34, 25 µM of 39, 1 h
[9] = read-out: IC50 PEST (peptide 1)
[10] = read-out: IC50 LYP (DiFMUP), substrate DiFMUP 1.5 µM
[11] = read-out: IC50 LYP (peptide 1), substrate peptide 1 10 µM
[12] = read-out: IC50 PEST (DiFMUP), substrate DiFMUP 1.5 µM
[13] = read-out: IC50 PEST (peptide 1), substrate peptide 1 10 µM
[14] = read-out: IC50 PTP1B (DiFMUP), substrate DiFMUP 1.5 µM
[15] = read-out: IC50 PTP1B (peptide 2), substrate peptide 2 60 µM
[16] = read-out: IC50 TCPTP (DiFMUP), substrate DiFMUP 1.5 µM
[17] = read-out: IC50 TCPTP (peptide 2), substrate peptide 2 60 µM

| SMILES | LYP versus PTP-PEST inhibition in comparative library screen [4] | IC50 [4, 10] | IC50 [4, 11] | IC50 ([1]; substrate DiFMUP) | IC50 ([2]; substrate DiFMUP) | IC50 [3, 12] | IC50 [3, 13] | selectivity for LYP over PTP-PEST in dose-response screens [4] | further results |
| --- | --- | --- | --- | --- | --- | --- | --- | --- | --- |
| O=S(=O)(O)c1cccc([P+]([Au-][Cl])(c2ccccc2)c2ccccc2)c1 [Compound 12, 3-(Diphenylphosphino)benzenesulfonic acid-Au(I)-Cl] | appear LYP-selective when DiFMUP is used in the assay, but not when the peptide is used | 2 ± 0.1 µM | 1.9 ± 0.2 µM |  |  |  |  |  | IC50 [1]: 40 ± 1 µM; IC50 [2]: > 70 µM; IC50 ([3]; read-out: IC50 PEST (DiFMUP)): 70 ± 2 µM; IC50 [3, 9]: 4 ± 0.2 µM; selectivity for LYP over PTP-PEST ([4]; with DiFMUP as substrate): 35 fold; selectivity for LYP over PTP-PEST ([4]; with peptide 1 as substrate): 2 fold |
| CP(C)c1ccccc1.[Cl][Au] [Compound 13, Dimethylphenylphosphine-Au(I)-Cl] | more potent inhibitors of LYP than PTP-PEST regardless of the substrate used | 3.5 ± 0.3 µM | 2 ± 0.3 µM | > 50 µM | > 100 µM | 70 ± 2 µM | 30 ± 2 µM | selective for LYP over the ~ 70% identical PTP-PEST |  |
| O=S(=O)(O)c1ccc([P+]([Au-][Cl])(c2ccccc2)c2ccc(S(=O)(=O)O)cc2)cc1 [Compound 18, 4,4′-(Phenylphosphinidene)bis(benzenesulfonic acid)-Au(I)-Cl] |  | 2 ± 0.1 µM | 0.85 ± 0.05 µM |  |  |  |  | selective for LYP over the ~ 70% identical PTP-PEST | IC50 [1]: 16 ± 2 µM; selectivity between PTP1B and TCPTP in dose-response screens [5]: no significant selectivity with DiFMUP; IC50 ([5]; read-out: IC50 PTP1B (DiFMUP)): 16 ± 1 µM; IC50 ([5]; read-out: IC50 PTP1B (peptide 2)): 15 ± 1 µM; IC50 [2]: 26 ± 1 µM; TCPTP versus PTP1B inhibition in comparative library screen [6]: slightly TCPTP selective with peptide 2; selectivity for TCPTP (over PTP1B) [6]: approximately 2 fold; IC50 ([6]; read-out: IC50 TCPTP (DiFMUP)): 16 ± 1 µM; IC50 ([6]; read-out: IC50 TCPTP (peptide 2)): 7.5 ± 0.3 µM; IC50 ([3]; read-out: IC50 PEST (DiFMUP)): 39 ± 1 µM; IC50 [3, 9]: 10 ± 2 µM |
| [Cl][Au][PH](c1ccco1)(c1ccco1)c1ccco1 [Compound 19, Tri-2-furylphosphine-Au(I)-Cl] |  |  |  |  |  |  |  |  | selectivity between PTP1B and TCPTP in dose-response screens ([5]; Table 2): selective for PTP1B with both substrates; PTP1B inhibition in library screen, peptide 2 versus DiFMUP [5]: inhibit PTP1B better with peptide 2 than with DiFMUP; IC50 [5, 14]: 0.33 ± 0.02 µM; IC50 [5, 15]: 0.2 ± 0.02 µM; IC50 [6, 16]: 2.4 ± 0.2 µM; IC50 [6, 17]: 2.2 ± 0.3 µM |
| [Cl][Au][PH](C1CCCCC1)(C1CCCCC1)C1CCCCC1 [Compound 25, Tricyclohexylphosphine-Au(I)-Cl] | appear LYP-selective when DiFMUP is used in the assay, but not when the peptide is used | 25 ± 1 µM | 61 ± 1 µM | 20 ± 2 µM | > 70 µM | 45 ± 1 µM | > 80 µM |  |  |
| N#CCC[P+](CCC#N)([Au-][Cl])c1ccccc1 [Compound 28, Bis(2-cyanoethyl)phenylphosphine-Au(I)-Cl] |  | 3.5 ± 0.1 µM | 2.5 ± 0.6 µM | > 50 µM | > 70 µM | > 80 µM | 33 ± 1 µM | selective for LYP over the ~ 70% identical PTP-PEST |  |
| CCP(CC)CC.[Au+].[Cl-] [Compound 39] | appears LYP selective with peptide 1, but not with DiFMUP | 33 ± 3 µM | 26 ± 2 µM | 120 ± 5 µM | 33 ± 3 µM | > 150 µM | 93 ± 9 µM | selective for LYP over the ~ 70% identical PTP-PEST | phosphorylation of Lck at Y505 (CD45 activity in cells) [7]: increase in this band; selectivity for LYP over PTP-PEST ([4]; with peptide 1 as substrate): ~4 fold; phosphorylation of Lck at Y394 (LYP activity in cells) [8]: increase in phosphorylation at Y394 |
| Fc1c(F)c(F)c([PH]([Au][Cl])(c2c(F)c(F)c(F)c(F)c2F)c2c(F)c(F)c(F)c(F)c2F)c(F)c1F [Compound 40] |  |  |  |  |  |  |  |  | selectivity between PTP1B and TCPTP in dose-response screens ([5]; Table 2): no significant selectivity with DiFMUP; PTP1B inhibition in library screen, peptide 2 versus DiFMUP [5]: the reverse seems to be true; IC50 [5, 14]: 7.5 ± 0.2 µM; IC50 [5, 15]: 5.4 ± 0.3 µM; selectivity for PTP1B (over TCPTP) ([5]; with peptide 2 as substrate): ~10 fold; IC50 [6, 16]: 6.7 ± 0.2 µM; IC50 [6, 17]: 57 ± 1 µM |
